# Reference: patent US11149292B2, “Processes for the preparation of (R)-2-(7-(4-cyclopentyl-3-(trifluoromethyl)benzyloxy)-1,2,3,4-tetrahydrocyclopenta[B]indol-3-yl)acetic acid and salts thereof” (Arena Pharmaceuticals, Inc., priority 2010, dated 2021)
# How the values were obtained:
# Female C57BL/6 mice = assay: MOG-induced experimental autoimmune encephalomyelitis (EAE) in mice; format: in vivo, mouse; settings: 0.3, 1 and 3 mg/kg orally once a day from day 3 until day 21; FIG. 4
# Male BALB/c mice = assay: Mouse Peripheral Lymphocyte Lowering (PLL) assay; format: in vivo; settings: 1.00 mg/kg oral dose; blood at 5 hours post-dose; FIG. 1
# Protocol: Male BALB/c mice (Charles River Laboratories, Wilmington, Mass.) were housed four per cage and maintained in a humidity-controlled (40 to 60%) and temperature-controlled (68 to 72° F.) facility on a 12 h:12 h light/dark cycle (lights on at 6:30 am) with free access to food (Harlan Teklad, Orange, Calif., Rodent Diet 8604) and water. Mice were allowed one week of habituation to the animal facility before testing. PLL Assay: […] Peripheral blood samples were collected at 5 hours post-dose. The mice were anesthetized with isoflurane and blood was collected via cardiac puncture. A complete cell count (CBC), including lymphocyte count, was obtained using a CELL-DYN® 3700 (Abbott Laboratories, Abbott Park, Ill.) instrument. Results are presented in FIG. 1, in which peripheral blood lymphocyte (PBL) count is shown for the 5 hour group.
# Female Lewis rats = assay: Collagen-induced arthritis rat model; format: in vivo; settings: 0.3, 1 and 3 mg/kg p.o., q.d., day 0 to day 16; FIG. 3
# Protocol: Female Lewis rats were used in this study. Acclimated animals were anesthetized with isoflurane and given the first collagen injection (day 0). On day 6, they were anesthetized again for the second collagen injection. Collagen was prepared by making a 4 mg/mL solution in 0.01 N acetic acid. Equal volumes of collagen and incomplete Freund's adjuvant were emulsified by hand mixing until a bead of this material held its form when placed in water. Each animal received 300 μL of the mixture each time, spread over 3 subcutaneous sites on the back. Treatment (p.o., q.d., 5 mL/kg dosing volume) began on day 0 and continued through day 16 with vehicle or compounds given at 24 h intervals. Rats were weighed on days 0, 3, 6 and 9 through 17 and caliper measurements of the ankles taken on days 9 through 17.
# Male Sprague-Dawley rats [1] = assay: Cardiac telemetry in the rat (exemplary bradycardia assay); format: in vivo; settings: oral, vehicle PEG400; heart rate measured over a 120 min period
# Protocol: Male Sprague-Dawley rats (250-300 g at time of surgery) were implanted by Charles River Laboratories (Wilmington, Mass.) with cardiac transmitting devices (Data Sciences PhysioTel C50-PXT) into the peritoneal space, with a pressure-sensing catheter inserted into the descending aorta. Rats are allowed at least one week to recover. Rats were housed in individual cages and maintained in a humidity-controlled (30-70%) and temperature-controlled (20-22° C.) facility on a 12 h:12 h light/dark cycle (lights on at 7:00 am) with free access to food (Harlan-Teklad, Orange, Calif., Rodent Diet 8604) and water. Rats were allowed one week of habituation to the animal facility before testing.
# The implanted transmitting devices transmitted continuous measurements of blood pressure (systolic, diastolic, mean arterial, pulse), heart rate, body temperature, and motor activity in freely moving conscious animals. […] Telemetry recording occurred over a 21-h period, starting at noon and continuing until 9:00 am the following day. […]
# By way of illustration and not limitation, the rats were administered vehicle (PEG 400) and (R)-2-(7-(4-cyclopentyl-3-(trifluoromethyl)benzyloxy)-1,2,3,4-tetrahydrocyclopenta[b]indol-3-yl)acetic acid and heart rate was then measured over a 120 min period.
# Male Sprague-Dawley rats [2] = assay: Rat Peripheral Lymphocyte Lowering (PLL) assay; format: in vivo; settings: 1.00 mg/kg oral dose; blood at 5 hours post-dose; FIG. 2
# Protocol: Male Sprague-Dawley rats (7 weeks of age at start of study) (Charles River Laboratories) were housed two per cage and maintained in a humidity-controlled (40-60%) and temperature-controlled (68-72° F.) facility on a 12 h:12 h light/dark cycle (lights on at 6:30 am) with free access to food (Harlan Teklad, Orange, Calif., Rodent Diet 8604) and water. Rats were allowed one week of habituation to the animal facility before testing. […] Peripheral blood samples were collected at 5 hours post-dose. Blood was collected via indwelling catheter. A complete cell count (CBC), including lymphocyte count, was obtained using a CELL-DYN® 3700 (Abbott Laboratories, Abbott Park, Ill.) instrument. Results are presented in FIG. 2, in which peripheral blood lymphocyte (PBL) count is shown for the 5 hour group.
# S1P1 receptor = S1P1 receptor (Homo sapiens (Human), UniProt P21453); assay: HTRF assay for direct cAMP measurement in recombinant CHO-K1 cells stably transfected with S1P1; format: cell-based
# From the text: CHO-K1 cells were obtained from ATCC® (Manassas, Va.; Catalog #CCL-61). […] The HTRF® assay has been used to determine EC50 values for S1P1 receptor agonists.
# HTRF® assay kit was purchased from Cisbio-US, Inc. (Bedford, Mass.; Catalog #62AM4PEC). The HTRF® assay supported by the kit is a competitive immunoassay between endogenous cAMP produced by the CHO-K1 cells and tracer cAMP labeled with the dye d2. The tracer binding is visualized by a monoclonal anti-cAMP antibody labeled with Cryptate. The specific signal (i.e., fluorescence resonance energy transfer, FRET) is inversely proportional to the concentration of unlabeled cAMP in the standard or sample.
# The fluorescence ratio (665 nm/620 nm) of the standards (0.17 to 712 nM cAMP) included in the assay was calculated and used to generate a cAMP standard curve according to the kit manufacturer's instructions. The fluorescence ratio of the samples (test compound or compound buffer) was calculated and used to deduce respective cAMP concentrations by reference to the cAMP standard curve.
# The HTRF® assay was carried out using a two-step protocol essentially according to the kit manufacturer's instructions, in […] total volume per well in 384-well plate format (ProxiPlates; PerkinElmer, Fremont, Calif.; catalog #6008280). […] The plate was then further incubated at room temperature for 1 hour, after which the assay plate was read. […]
# S1P1 receptor, sequence (P21453 whole entry): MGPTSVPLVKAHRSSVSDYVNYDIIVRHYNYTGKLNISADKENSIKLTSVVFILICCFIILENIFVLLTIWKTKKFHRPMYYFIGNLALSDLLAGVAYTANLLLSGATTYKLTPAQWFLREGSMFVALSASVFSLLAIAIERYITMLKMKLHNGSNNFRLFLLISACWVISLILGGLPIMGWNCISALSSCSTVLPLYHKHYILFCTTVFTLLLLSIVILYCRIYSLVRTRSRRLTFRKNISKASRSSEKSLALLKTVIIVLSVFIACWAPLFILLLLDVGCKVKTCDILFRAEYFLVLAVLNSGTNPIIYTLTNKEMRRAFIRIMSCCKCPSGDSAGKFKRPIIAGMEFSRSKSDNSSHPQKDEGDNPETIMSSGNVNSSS
structure (smiles),measurement,setting,value
"O=C(O)C[C@H]1CCc2c1[nH]c1ccc(OCc3ccc(C4CCCC4)c(C(F)(F)F)c3)cc21 [(R)-2-(7-(4-cyclopentyl-3-(trifluoromethyl)benzyloxy)-1,2,3,4-tetrahydrocyclopenta[b]indol-3-yl)acetic acid]",reduction of severity of disease symptoms (clinical score) in EAE,Female C57BL/6 mice,exhibited activity in the mouse EAE assay
same,peripheral blood lymphocyte (PBL) count lowering vs vehicle,Male BALB/c mice,exhibited activity for inducing PBL lowering (lymphopenia)
same,reduction of mean ankle diameter,Female Lewis rats,exhibited activity for reducing mean ankle diameter
same,reduction of heart rate (bradycardia) vs vehicle,Male Sprague-Dawley rats [1],no or substantially no reduction of heart rate
same,peripheral blood lymphocyte (PBL) count lowering vs vehicle,Male Sprague-Dawley rats [2],exhibited activity for inducing PBL lowering (lymphopenia)
same,S1P1 receptor agonism (decrease of cAMP concentration),S1P1 receptor,agonist of the S1P1 receptor
